Target: recombinant DYRK1A kinase (Homo sapiens (Human), UniProt Q13627)
Assay: DYRK1A kinase assay (Ser/Thr 18 peptide Z-lyte FRET)
Type: biochemical
Settings: DYRK1A kinase activity, Z-lyte Ser/Thr 18 peptide, 15 μM ATP; method text calls the value IC50; read-out: EC50 (the source's name)
In short: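 Z-lyte FRET: recombinant DYRK1A 0.25 μg/mL, ATP 15 μM, Ser/Thr 18 peptide 4 μM, with compound (11-point 1:3, 10 μM top) 1 h at room temperature, then development reagent 1 h. Coumarin/fluorescein emission ratio converted to % phosphorylation; IC50 by non-linear regression, duplicates.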

SMILES	IC50
COc1nc(N[C@H]2CC[C@](C)(O)CC2)nn2ccc(-c3ccc4nnn(CC(F)F)c4c3)c12 [Compound 725, (1r,4r)-4-((5-(1-(2,2-difluoroethyl)-1H-benzo[d][1,2,3]triazol-6-yl)-4-methoxypyrrolo[2,1-f][1,2,4]triazin-2-yl)amino)-1-methylcyclohexan-1-ol]	0.6 nM
CC[C@]1(O)CC[C@@H](Nc2nc(OC)c3c(-c4ccc5nnn(CC(F)F)c5c4)ccn3n2)CC1 [Compound 726, (1s,4s)-4-((5-(1-(2,2-Difluoroethyl)-1H-benzo[d][1,2,3]triazol-6-yl)-4-methoxypyrrolo[2,1-f][1,2,4]triazin-2-yl)amino)-1-ethylcyclohexan-1-ol]	1.8 nM
CC[C@]1(O)CC[C@H](Nc2nc(OC)c3c(-c4ccc5nnn(CC(F)F)c5c4)ccn3n2)CC1 [Compound 727, (1r,4r)-4-((5-(1-(2,2-Difluoroethyl)-1H-benzo[d][1,2,3]triazol-6-yl)-4-methoxypyrrolo[2,1-f][1,2,4]triazin-2-yl)amino)-1-ethylcyclohexan-1-ol]	2.8 nM
CCN1C[C@H](F)[C@H](Nc2nc(OC)c3c(-c4ccc5nnn(CC(F)F)c5c4)ccn3n2)C1 [Compound 732, 5-(1-(2,2-Difluoroethyl)-1H-benzo[d][1,2,3]triazol-6-yl)-N-((3R,4S)-1-ethyl-4-fluoropyrrolidin-3-yl)-4-methoxypyrrolo[2,1-f][1,2,4]triazin-2-amine]	1 nM
COc1nc(N[C@@H]2CN(C3COC3)C[C@@H]2F)nn2ccc(-c3ccc4nnn(CC(F)F)c4c3)c12 [Compound 739, 5-(1-(2,2-Difluoroethyl)-1H-benzo[d][1,2,3]triazol-6-yl)-N-((3R,4S)-4-fluoro-1-(oxetan-3-yl)pyrrolidin-3-yl)-4-methoxypyrrolo[2,1-f][1,2,4]triazin-2-amine]	4.6 nM
COc1nc(N[C@@H]2CN(C3(C#N)COC3)C[C@@H]2F)nn2ccc(-c3ccc4nnn(CC(F)F)c4c3)c12 [Compound 741, 3-((3R,4S)-3-((5-(1-(2,2-Difluoroethyl)-1H-benzo[d][1,2,3]triazol-6-yl)-4-methoxypyrrolo[2,1-f][1,2,4]triazin-2-yl)amino)-4-fluoropyrrolidin-1-yl)oxetane-3-carbonitrile]	1.2 nM
COc1nc(NC2CCN(C3COC3)CC2)nn2ccc(-c3ccc4nnn(CC(F)F)c4c3)c12 [Compound 750, 5-(1-(2,2-Difluoroethyl)-1H-benzo[d][1,2,3]triazol-6-yl)-4-methoxy-N-(1-(oxetan-3-yl)piperidin-4-yl)pyrrolo[2,1-f][1,2,4]triazin-2-amine]	0.3 nM
COc1nc(N[C@H]2CCN(CC(C)(C)C#N)C[C@H]2F)nn2ccc(-c3ccc4nnn(CC(F)F)c4c3)c12 [Compound 757, 3-((3R,4S)-4-((5-(1-(2,2-Difluoroethyl)-1H-benzo[d][1,2,3]triazol-6-yl)-4-methoxypyrrolo[2,1-f][1,2,4]triazin-2-yl)amino)-3-fluoropiperidin-1-yl)-2,2-dimethylpropanenitrile]	36.7 nM
COc1nc(N[C@@H]2CCN(C3COC3)C[C@@H]2F)nn2ccc(-c3ccc4nnn(CC(F)F)c4c3)c12 [Compound 761, 5-(1-(2,2-Difluoroethyl)-1H-benzo[d][1,2,3]triazol-6-yl)-N-((3S,4R)-3-fluoro-1-(oxetan-3-yl)piperidin-4-yl)-4-methoxypyrrolo[2,1-f][1,2,4]triazin-2-amine]	1.7 nM
COc1nc(N[C@H]2CCN(C3COC3)C[C@H]2F)nn2ccc(-c3ccc4nnn(CC(F)F)c4c3)c12 [Compound 762, 5-(1-(2,2-Difluoroethyl)-1H-benzo[d][1,2,3]triazol-6-yl)-N-((3R,4S)-3-fluoro-1-(oxetan-3-yl)piperidin-4-yl)-4-methoxypyrrolo[2,1-f][1,2,4]triazin-2-amine]	1.3 nM
COc1nc(N[C@H]2CCN(C3(C)COC3)C[C@H]2F)nn2ccc(-c3ccc4nnn(CC(F)F)c4c3)c12 [Compound 764, 5-(1-(2,2-difluoroethyl)-1H-benzo[d][1,2,3]triazol-6-yl)-N-((3R,4S)-3-fluoro-1-(3-methyloxetan-3-yl)piperidin-4-yl)-4-methoxypyrrolo[2,1-f][1,2,4]triazin-2-amine]	0.4 nM
COc1nc(N[C@H]2CCN(C3(C#N)COC3)C[C@H]2F)nn2ccc(-c3ccc4nnn(CC(F)F)c4c3)c12 [Compound 769, 3-((3R,4S)-4-((5-(1-(2,2-Difluoroethyl)-1H-benzo[d][1,2,3]triazol-6-yl)-4-methoxypyrrolo[2,1-f][1,2,4]triazin-2-yl)amino)-3-fluoropiperidin-1-yl)oxetane-3-carbonitrile]	2.9 nM

The next lines start with the values.

IC50	SMILES
4.6 nM	COc1nc(N[C@@H]2CN(C)C[C@@H]2F)nn2ccc(-c3ccc4nnn(CC(F)F)c4c3)c12 [Compound 730, 5-(1-(2,2-Difluoroethyl)-1H-benzo[d][1,2,3]triazol-6-yl)-N-((3R,4S)-4-fluoro-1-methylpyrrolidin-3-yl)-4-methoxypyrrolo[2,1-f][1,2,4]triazin-2-amine]
0.8 nM	COc1nc(N[C@@H]2CN(C(C)=O)C[C@@H]2F)nn2ccc(-c3ccc4nnn(CC(F)F)c4c3)c12 [Compound 734, 1-((3R,4S)-3-((5-(1-(2,2-Difluoroethyl)-1H-benzo[d][1,2,3]triazol-6-yl)-4-methoxypyrrolo[2,1-f][1,2,4]triazin-2-yl)amino)-4-fluoropyrrolidin-1-yl)ethan-1-one]
1.7 nM	COc1nc(N[C@H]2CCN(C)C[C@H]2F)nn2ccc(-c3ccc4nnn(CC(F)F)c4c3)c12 [Compound 754, 5-(1-(2,2-Difluoroethyl)-1H-benzo[d][1,2,3]triazol-6-yl)-N-((3R,4S)-3-fluoro-1-methylpiperidin-4-yl)-4-methoxypyrrolo[2,1-f][1,2,4]triazin-2-amine]
2.3 nM	CCN1CC[C@H](Nc2nc(OC)c3c(-c4ccc5nnn(CC(F)F)c5c4)ccn3n2)[C@H](F)C1 [Compound 755, 5-(1-(2,2-Difluoroethyl)-1H-benzo[d][1,2,3]triazol-6-yl)-N-((3R,4S)-1-ethyl-3-fluoropiperidin-4-yl)-4-methoxypyrrolo[2,1-f][1,2,4]triazin-2-amine]
1.4 nM	COc1nc(N[C@H]2CCN(CCO)C[C@H]2F)nn2ccc(-c3ccc4nnn(CC(F)F)c4c3)c12 [Compound 756, 2-((3R,4S)-4-((5-(1-(2,2-Difluoroethyl)-1H-benzo[d][1,2,3]triazol-6-yl)-4-methoxypyrrolo[2,1-f][1,2,4]triazin-2-yl)amino)-3-fluoropiperidin-1-yl)ethan-1-ol]
1.1 nM	COc1nc(N[C@H]2CCN(CC(C)(C)O)C[C@H]2F)nn2ccc(-c3ccc4nnn(CC(F)F)c4c3)c12 [Compound 758, 1-((3R,4S)-4-((5-(1-(2,2-Difluoroethyl)-1H-benzo[d][1,2,3]triazol-6-yl)-4-methoxypyrrolo[2,1-f][1,2,4]triazin-2-yl)amino)-3-fluoropiperidin-1-yl)-2-methylpropan-2-ol]
1.5 nM	COc1nc(N[C@@H]2CCN(C(C)=O)C[C@@H]2F)nn2ccc(-c3ccc4nnn(CC(F)F)c4c3)c12 [Compound 770, 1-((3S,4R)-4-((5-(1-(2,2-Difluoroethyl)-1H-benzo[d][1,2,3]triazol-6-yl)-4-methoxypyrrolo[2,1-f][1,2,4]triazin-2-yl)amino)-3-fluoropiperidin-1-yl)ethan-1-one]

Source: patent US20240002391A1, “4-ALKOXYPYRROLO[2,1-F][1,2,4]TRIAZINES AND PREPARATION AND USES THEREOF” (BioSplice Therapeutics, Inc., priority 2022, published 2024)
